One block for each compound: values may come before it.
Columns and labels:
[1] = test system: PLZF-retinoic acid receptor-α bone marrow leukaemic cells; assay: Proliferation (3H-thymidine incorporation) of PLZF-RARα bone marrow leukaemic cells; type: cell-based, mouse
Experimental: (§1) Myeloid differentiation was evaluated by performing the nitroblue tetrazolium (NBT) assay, and cell proliferation by measuring DNA synthesis quantitating incorporation of ^3 H-thymidine.
(§2) Differentiation was evaluated performing the nitroblue tetrazolium (NBT) assay and morphological differential count^32. Proliferation of bone marrow cells was evaluated by measuring DNA synthesis quantitating incorporation of ^3 H-thymidine (Amersham). Bone marrow cells were plated at a density of 2×10^6 cells/ml and were pulsed with ^3 H-thymidine at a final concentration of […].

[2] = test system: PLZF-retinoic acid receptor-α; assay: 3XRARE-Luc reporter transfection assay in 293T cells, PLZF-RARα; type: cell-based, human
Experimental: (§3) The experiment was performed in medium reconstituted with serum not depleted of endogenous retinoids. Luciferase activity was measured in a scintillation counter and normalized with the internal β-galactosidase standard. […] Note that in panels A and B luciferase activity is expressed by different scales.
(§4) Luciferase activity was normalized with the internal β-galactosidase standard. Values represent the averages of two independent transfections.
(§5) 293T cells and KG1 cells were transfected by calcium phosphate precipitation, and by electroporation as already described^25, and luciferase activity of each sample was normalized against internal control β-galactosidase activity^25.
(§6) Nuclear receptor co-repressors form complexes with histone deacetylases (HDAC1 or 2), resulting in nucleosome assembly and transcriptional repression^15.

[3] = test system: PLZF-retinoic acid receptor-α bone marrow leukaemic cells; assay: Myeloid differentiation (NBT assay) of PLZF-RARα bone marrow leukaemic cells; type: cell-based, mouse; conditions: Trichostatin A alone (5 ng/ml)
Experimental: as §1, §2

[4] = test system: PML-retinoic acid receptor-α; assay: 3XRARE-Luc reporter transfection assay in 293T cells, PML-RARα; type: cell-based, human
Experimental: as §3, §4, §5, §6

[5] = test system: myelodysplasia, myeloid leukemia and solid tumors; conditions: human, in vivo; cited from earlier work
NB4 cells [6] = assay: NB4 cell differentiation (CD11b expression and NBT reduction); type: cell-based, human
Experimental: (§7) NB4 cells, a line that stably carries the PML/RAR-α fusion protein of acute promyelocytic leukemia^71, were maintained in RPMI1640 medium, which was supplemented with 10% fetal bovine serum and 1% of penicillin-streptomycin, at 37° C. in 5% CO2 atmosphere. Cultures were established at an initial density of 10^5 cells/ml in the presence or absence of drugs at various concentrations. Cellular proliferation was measured by assessment of ^3 H-thymidine incorporation. Aliquots (180 μl) from each culture were placed into 96-well plates in triplicate after 20 hrs of incubation, and 0.5 μCi of ^3 H-thymidine in 20 μl of medium was added to each well. […] The proportion of cells undergoing apoptosis was determined by Annexin V staining^72. Aliquots (1 ml) from each culture were harvested after 48 hrs incubation and the cells were stained with fluorescein isothiocyanate (FITC)-conjugated Annexin V and propidium iodide, according to the manufacturer's instructions (PharMingen, San Diego, Calif.). Annexin V and propidium iodide positivity were analyzed by flow cytometry (Becton-Dickinson, Mountainview, Calif.). Cell viability was measured after 4 days of incubation by using trypan blue exclusion. Cellular differentiation was evaluated at day 4 of incubation using both an assay for nitroblue tetrazolium (NBT) reduction and expression of CD11b (a cell surface differentiation antigen)^73. Briefly, 10^6 cells were harvested and incubated with 0.1% NBT solution in the presence of 12-o-tetradecanoylphorbol 13-acetate (TPA) (0.1 μg/ml) for 1 hr. The pellet of the mixture was then resuspended with 0.04 M HCl/10% SDS and kept at room temperature for 24 hrs. […] For CD11b expression, 10^6 cells were incubated with FITC-conjugated CD11b monoclonal antibody (PharMingen). A FITC-conjugated isotype was used as background control. Expression of CD11b, including percentage of positive cells and the fluorescence intensity, was determined by using flow cytometry (Becton Dickinson).

NB4 cells [7] = assay: NB4 cell viability (trypan blue exclusion); type: cell-based, human; conditions: phenylbutyrate 10 mM, 4 days of culture
Experimental: NB4 cells, a line that stably carries the PML/RAR-α fusion protein of acute promyelocytic leukemia^71, were maintained in RPMI1640 medium, which was supplemented with 10% fetal bovine serum and 1% of penicillin-streptomycin, at 37° C. in 5% CO2 atmosphere. Cultures were established at an initial density of 10^5 cells/ml in the presence or absence of drugs at various concentrations. Cellular proliferation was measured by assessment of ^3 H-thymidine incorporation. Aliquots (180 μl) from each culture were placed into 96-well plates in triplicate after 20 hrs of incubation, and 0.5 μCi of ^3 H-thymidine in 20 μl of medium was added to each well. […] The proportion of cells undergoing apoptosis was determined by Annexin V staining^72. […] Annexin V and propidium iodide positivity were analyzed by flow cytometry (Becton-Dickinson, Mountainview, Calif.). Cell viability was measured after 4 days of incubation by using trypan blue exclusion. Cellular differentiation was evaluated at day 4 of incubation using both an assay for nitroblue tetrazolium (NBT) reduction and expression of CD11b (a cell surface differentiation antigen)^73. […] The optical density was measured at 540 nm. […] Expression of CD11b, including percentage of positive cells and the fluorescence intensity, was determined by using flow cytometry (Becton Dickinson).

[8] = Plasma concentrations of phenylbutyrate during clinical infusion; type: in vivo, human
NB4 cells [9] = assay: NB4 cell proliferation (3H-thymidine incorporation); type: cell-based, human
Experimental: as §7

[10] = test system: acetylated histones H3 and H4; assay: Histone hyperacetylation in patient's blood and bone marrow mononuclear cells (Western, immunofluorescence); type: in vivo, human
Experimental: Hyperacetylation was detected using antiacetylated H3 or H4 antibodies reacting with histones that were acid-extracted from nucleated cells in peripheral blood before (lane 1) and 2, 4 and 6 hours (lanes 2 to 4) after initiation of the phenylbutyrate infusion, and from bone marrow before (lane 5) and after (lane 6) completion of the infusion. The parallel gel stained with Coomassie blue is a loading control.
Mononuclear cells from the patient's blood and bone marrow were isolated by density centrifugation and were applied on slides by cytospin. The slides were fixed in 95% ethanol/5% acetic acid for 1 min, permeabilized and blocked in 10% goat serum/1% BSA/0.3% Triton X-100/PBS for 40 min. The slides were then incubated with anti-acetylated histone H4 antibody (Upstate Biotechnology, Inc., Lake Placid, N.Y.) for 1 hr. A Texas-red-conjugated IgG was used as a secondary antibody to reveal the positivity; staining with 4',6-diamidino-2-phenylindole (DAPI) was used to reveal nuclei.
Nuclei from separated blood and bone marrow mononuclear cells were isolated by lysis in buffer containing 10 mM Tris-HCl pH 6.5, 50 mM sodium bisulfite, 1% Triton X-100, 10 mM MgCl2, 8.6% sucrose and Dounce homogenization. Histones were isolated by acid extraction^74. Isolated histones ([…]) were then separated on 15% SDS-PAGE minigels (Bio-Rad, Hercules, Calif.) and transferred to nitrocellulose (Schleicher and Schuell, Keene, N.H.). Hyperacetylated histones were detected by antibodies that specifically recognize the hyperacetylated forms of histone H4 and histone H3 (Upstate Biotechnology) and were visualized by chemiluminescence (Pierce, Rockford, Ill.). As a control for the amount of protein loading, parallel gels were stained with Coomassie blue.

NB4 cells [11] = assay: NB4 cell apoptosis (Annexin V flow cytometry); type: cell-based, human
Experimental: as §7

[12] = test system: acute promyelocytic leukemia; type: in vivo, human; conditions: Jan. `98 (first line)
Text: The patient used for clinical study is a person who was diagnosed with acute promyelocytic leukemia in 1994.

[13] = Trichostatin A alone (not shown)
[14] = retinoic acid 10^-6 M with Trichostatin A 150 nM, 36 hours

Structure (SMILES): CC(/C=C/C(=O)NO)=C\[C@@H](C)C(=O)c1ccc(N(C)C)cc1 [Trichostatin A]
growth inhibition ([1]; Trichostatin A alone (5 ng/ml)): marked growth inhibitory effect
transcriptional effect [2, 13]: negligible transcriptional effects
transactivation of reporter / reversal of transcriptional repression [2, 14]: reverted the transcriptional repression
differentiation [3]: negligible differentiating effect
transcriptional effect [4, 13]: negligible transcriptional effects
transactivation of reporter / reversal of transcriptional repression [4, 14]: reverted the transcriptional repression

Structure (SMILES): CC1=C(/C=C/C(C)=C/C=C/C(C)=C/C(=O)O)C(C)(C)CCC1 [retinoic acid, all-trans-retinoic acid]
growth inhibition ([1]; retinoic acid 10^-7 M and 10^-6 M): little if no effects
growth inhibition ([1]; retinoic acid 10^-7 M and 10^-6 M, listed as Retinoic acid): minimal

clinical achievability of concentration ([8]; 10 mM): not clinically achievable
Cmax ([8]; human, plasma, 150 mg/kg, patient, intravenous infusion, read-out: peak plasma levels transiently attained after completing the drug infusion): ~2000 µM
Structure (SMILES): O=C(O)CCCc1ccccc1 [phenylbutyrate, sodium phenylbutyrate]
clinical usefulness [5]: has not been clinically useful
differentiation (NB4 cells [6]; phenylbutyrate 0.08 mM): no effect
differentiation (NB4 cells [6]; phenylbutyrate 0.4 mM): no effects on other parameters
differentiation (NB4 cells [6]; phenylbutyrate 2 mM): little effect upon differentiation
viable cells (NB4 cells [7]): no viable cells remained after 4 days of culture
proliferation (NB4 cells [9]; phenylbutyrate 0.08 mM): no effect
proliferation (NB4 cells [9]; phenylbutyrate 0.4 mM): slight growth inhibition
proliferation (NB4 cells [9]; phenylbutyrate 2 mM): induced growth inhibition
proliferation (NB4 cells [9]; phenylbutyrate 10 mM): completely inhibited proliferation
magnitude of hyperacetylation (Western analysis) ([10]; 6 hours after starting the infusion): greatly diminished
acetylated histone H4 (immunofluorescence staining of nuclei) ([10]; peripheral blood cells, 6 hours after starting the infusion (approximately 4 hours after discontinuing the drug)): hyperacetylation was still visually evident
percentage of positive staining cells and staining intensity, acetylated histone H4 ([10]; peripheral blood mononuclear cells 0, 2, 4, 6 hours after infusion): progressively increases from baseline up to 6-hours
levels of acetylated H3 and H4 (Western blot) ([10]; peripheral blood mononuclear cells, two hours after beginning the phenylbutyrate infusion): markedly increased
apoptosis (NB4 cells [11]; phenylbutyrate 0.08 mM): no effect
apoptosis (NB4 cells [11]; phenylbutyrate 0.4 mM): no effects on other parameters
induction of apoptosis (NB4 cells [11]; phenylbutyrate 2 mM, 2 days): 15%
apoptosis (NB4 cells [11]; phenylbutyrate 10 mM): induced marked apoptosis

Structure (SMILES): CC(=O)O[C@H]1C(=O)[C@@]2(C)[C@H]([C@H](OC(=O)c3ccccc3)[C@]3(O)C[C@H](OC(=O)[C@H](O)[C@@H](NC(=O)c4ccccc4)c4ccccc4)C(C)=C1C3(C)C)[C@]1(OC(C)=O)CO[C@@H]1C[C@@H]2O [Paclitaxel]
Response [12]: Progression
